According to patent US12325862B2, “Compositions and methods for transgenic crops resistant to thaxtomins” (University of Florida Research Foundation, Inc., priority 2019, dated 2025):

B1: NfsB: nitroreductase from Haemophilus influenzae (SEQ ID NO: 4), recombinant with C-terminal His6 tag (protein, listed as Haemophilus influenzae)
chain: MTQLTREQVLELFHQRSSTRYYDPTKKISDEDFECILECGRLSPSSVGSEPWKFLVIQNKTLREKMKPFSWGMINQLDNCSHLVVILAKKNARYDSPFFVDVMARKGLNAEQQQAALTKYKALQEEDMKLLENDRTLFDWCSKQTYIALANMLTGASALGIDSCPIEGFHYDKMNECLAEEGLFDPQEYAVSVAATFGYRSRDIAKKSRKGLDEVVKWVG
modifications: C-terminal His6 tag

Experiments:
[1] = tested on: radish seedlings; assay: Radish seedling assay; assay type: in vivo; conditions: for growth of radish seedlings on agar plate: after seven days, compared with negative control DMSO
Method: Serial concentrations of thaxtomins in DMSO were added into 20 mL of 1.5% warm agar solution with gentle agitation to the final concentrations range from 0 to 2 μM. DMSO was included as a negative control. The solution was then poured into the plate for solidification at room temperature for 30 min. Radish seeds (W. Atlee Burpee & Co., Warminster Township, Pennsylvania) were surface disinfested, pregerminated, and selected when the radicle was […] and just emerged from the seed coat. Six radish seedlings were equally located on the surface of each plate with the root ends all pointed in the same direction. Agar plates were covered and sealed with Parafilm®. The seedlings in the agar plates grew at room temperature under fluorescent lighting (12 h per day for 7 days), and then the seedling with average size of all seedlings in the same plate was selected for comparison.
A radish seedling assay was carried out to investigate the herbicidal activity of serial concentrations of 4-amino thaxtomin A (compound 5). The assay also included DMSO as negative control and thaxtomin A (1) as positive control. […] The diminished herbicidal activity is caused by the transformation of the nitro group of thaxtomin A (1) into the amine group.

[2] = NfsB enzymatic reaction, conditions optimized with thaxtomin A as substrate; assay type: biochemical
Method: Enzymatic reaction conditions were optimized with thaxtomin A as substrate. […] When coupled with a glucose dehydrogenase (GDH)- or phosphite dehydrogenase (PTDH)-based NADPH regeneration system, the enzyme at 10 μM achieved greater than 90% conversion of thaxtomin A (2 mM) at 37° C. in 8 hours. […] In addition, a crude extract of engineered thaxtomin producing strain Streptomyces albus-thx2 was prepared; the extract contained about 69% thaxtomin A based on HPLC analysis.

Molecule | growth of radish seedlings on agar plate ([1]; 0.05 μM) | growth of radish seedlings on agar plate ([1]; 2.0 μM) | herbicidal activity to radish seedlings ([1]; overall conclusion, 0.05 μM and 2.0 μM) | conversion of thaxtomin A (1) in crude extract into compound 5 ([2]; crude extract of Streptomyces albus-thx2, about 69% thaxtomin A) | conversion of thaxtomin A ([2]; enzyme 10 μM, thaxtomin A 2 mM, 37° C., 8 hours, GDH- or PTDH-based NADPH regeneration system) | temperature of highest enzyme activity ([2]; thaxtomin A as substrate) [°C]
CN1C(=O)[C@](O)(Cc2cccc(O)c2)N(C)C(=O)[C@@H]1Cc1c[nH]c2cccc(N)c12 [compound 5, 4-amino thaxtomin A] | the same as the negative control DMSO | the same as the negative control DMSO | minimal to no herbicidal activity |  |  | 
CN1C(=O)[C@](O)(Cc2cccc(O)c2)N(C)C(=O)[C@@H]1Cc1c[nH]c2cccc([N+](=O)[O-])c12 [thaxtomin A, reference compound] |  | significantly inhibited |  |  |  | 
B1 |  |  |  | completely converted | greater than 90% | 37
